{"source": "patent US20260092036A1", "about": "“CRYSTALLINE SALTS OF A T-TYPE CALCIUM CHANNEL MODULATOR AND METHODS OF USE THEREOF” (Praxis Precision Medicines, Inc., priority 2023, published 2026)", "type_in_all_cases": "physicochemical", "key": {"[1]": {"test": "Solid form stability on heating (XRPD, hot stage microscopy)", "conditions": "hydrochloride salt trihydrate", "experimental": "Amorphous material was generated through ball milling in the experiments with the goal to obtain a new crystalline form. […] Pattern D was determined to be a channel trihydrate, the form identification was confirmed by Single Crystal XRD.\nFIG. 5 is an overlay of XRPD spectra of Pattern D heated to 90° C. and cooled back to room temperature; Pattern D heated to 150° C. and cooled back to room temperature; as well as Pattern C and Pattern D reference spectra.\nFIG. 6 is an image of Pattern D heated to different temperatures obtained using hot stage microscopy (HSM)."}, "[2]": {"test": "Water solubility of crystalline forms measured by HPLC", "experimental": "Water solubility of Pattern D was measured by HPLC to determine how much the water solubility drops between Pattern C and Pattern D. To measure the solubility of Pattern D in H2O, ˜150 mg of Pattern D was slurried for 2 weeks at RT in 1 mL of H2O."}, "[3]": {"test": "Dynamic Vapor Sorption (DVS) on Pattern D"}}}
{"molecule": "CC(C)(C)NC(=O)CN1CCC(CNC(=O)c2cc(F)cc(Cl)c2)CC1.Cl", "note": "[Pattern D, N-((1-(2-(tert-butylamino)-2-oxoethyl)piperidin-4-yl)methyl)-3-chloro-5-fluorobenzamide hydrochloride salt trihydrate]", "values": [{"measurement": "form conversion on heating (XRPD)", "setting": "[1]; heated to 90° C. and cooled back to room temperature", "value": "no form conversion"}, {"measurement": "form on further heating (XRPD)", "setting": "[1]; heated to 150° C. and cooled back to room temperature", "value": "turns amorphous"}, {"measurement": "form conversion after slurry in H2O (XRPD)", "setting": "[2]; 2-week slurry in H2O at RT", "value": "no form conversion"}, {"measurement": "solubility at 2 weeks", "setting": "[2]; water, thermodynamic from solid", "value": 77.2, "unit": "mg/mL"}, {"measurement": "mass gained in DVS", "setting": "[3]; at 80% RH", "value": "~10.45", "unit": "%"}, {"measurement": "water re-adsorbed after desolvation in DVS", "setting": "[3]; by RH of 20%, after loss of moisture at RH close to 0", "value": "approximately 10.5%"}, {"measurement": "form change post DVS (XRPD)", "setting": "[3]; post DVS", "value": "no clear form change"}]}
